Experiments:
Calu-6 tumour xenograft = assay: Calu-6 tumour xenograft, in vivo solid tumour model; details: once-daily oral, 28 days
[1] = target: stem cell factor receptor tyrosine kinase (SCF RTK, c-kit) (Homo sapiens, UniProt P10721); assay: inhibition of c-kit; assay type: biochemical
MG63 cells = MG63 cells stimulated by PDGF-AA; read-out: IC50, PDGFR-α dependent cellular proliferation; cited from earlier work
[2] = tested on: VEGF-stimulated endothelial cell proliferation (HUVEC); assay: HUVEC assay, VEGF-stimulated endothelial cell proliferation; assay type: cell-based; details: Homo sapiens
[3] = tested on: basal endothelial cell proliferation (HUVEC); assay: HUVEC assay, basal endothelial cell proliferation; assay type: cell-based; details: Homo sapiens, no VEGF stimulation

Sequence of stem cell factor receptor tyrosine kinase (SCF RTK, c-kit) (P10721 26-976): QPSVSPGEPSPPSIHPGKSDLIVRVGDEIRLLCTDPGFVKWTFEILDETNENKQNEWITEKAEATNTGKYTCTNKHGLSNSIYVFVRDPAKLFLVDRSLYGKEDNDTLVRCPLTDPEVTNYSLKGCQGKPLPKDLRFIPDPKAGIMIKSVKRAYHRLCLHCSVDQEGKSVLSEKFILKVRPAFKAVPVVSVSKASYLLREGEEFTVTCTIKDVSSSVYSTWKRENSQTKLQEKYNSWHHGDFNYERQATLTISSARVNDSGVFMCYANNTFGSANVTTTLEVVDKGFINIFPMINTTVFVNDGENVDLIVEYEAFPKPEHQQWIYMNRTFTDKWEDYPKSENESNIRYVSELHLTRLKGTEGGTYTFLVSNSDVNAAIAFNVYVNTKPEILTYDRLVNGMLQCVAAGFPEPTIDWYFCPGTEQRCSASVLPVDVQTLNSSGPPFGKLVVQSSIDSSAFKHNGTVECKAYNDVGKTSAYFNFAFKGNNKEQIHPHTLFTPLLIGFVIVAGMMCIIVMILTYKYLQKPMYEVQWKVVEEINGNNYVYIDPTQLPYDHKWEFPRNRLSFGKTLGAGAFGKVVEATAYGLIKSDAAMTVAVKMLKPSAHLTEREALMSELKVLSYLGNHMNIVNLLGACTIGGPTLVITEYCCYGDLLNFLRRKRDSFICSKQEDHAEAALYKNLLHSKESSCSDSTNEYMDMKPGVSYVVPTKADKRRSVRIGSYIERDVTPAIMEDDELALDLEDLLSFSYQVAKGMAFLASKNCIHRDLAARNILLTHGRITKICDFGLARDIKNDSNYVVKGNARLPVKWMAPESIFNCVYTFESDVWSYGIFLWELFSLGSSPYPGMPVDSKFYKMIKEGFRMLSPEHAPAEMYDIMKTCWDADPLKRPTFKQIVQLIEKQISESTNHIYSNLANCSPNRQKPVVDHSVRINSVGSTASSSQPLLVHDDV

inhibition of c-kit [1]: inhibits c-kit
SMILES: COc1cc2c(Oc3ccc4[nH]c(C)cc4c3F)ncnc2cc1OCCCN1CCCC1 [AZD2171, 4-(4-fluoro-2-methyl-1H-indol-5-yloxy)-6-methoxy-7-(3-(pyrrolidin-1-yl)propoxy)quinazoline]
inhibition of Calu-6 tumour xenograft growth (Calu-6 tumour xenograft; 1.5 mg/kg/day, P<0.01): 49%
inhibition of Calu-6 tumour xenograft growth (Calu-6 tumour xenograft; 3 mg/kg/day, P<0.0001): 69%
inhibition of Calu-6 tumour xenograft growth (Calu-6 tumour xenograft; 6 mg/kg/day, P<0.0001): 91%
IC50 (MG63 cells): 40 nM
IC50 [2]: 0.4 ± 0.2 nM
IC50 [3]: > 500 nM

— patent US20090325977A1 (priority 2004, published 2009)
